Assay results: BindingDB's records for doi:10.3109/14756360903017122 (Indian Institute of Chemical Technology, 2010)

Biological target: Sucrase-isomaltase, intestinal (Rattus norvegicus, UniProt P23739)
Test: In Vitro α-Glucosidase Inhibitory Assay
Conditions: pH 6.8
Experimental: Rat intestinal acetone powder in normal saline (100: 1; w/v) was sonicated thoroughly and the supernatant was used as a source of crude intestinal α-glucosidase after centrifugation. In brief, […] of test sample ( 5 mg/mL DMSO solution) was reconstituted in […] of 100 mM phosphate buffer (pH 6.8) in a 96-well microplate and incubated with […] of crude intestinal α-glucosidase for 5 min before […] substrate (5 mM pNPG prepared in same buffer) was added. Release of p-nitrophenol was measured at 405 nm spectrophotometrically (SpectraMax Plus384; Molecular Devices Corp., Sunnyvale, CA, USA) 5 min after incubation withsubstrate. Individual blanks for test samples were prepared to correct background absorbance where substrate was replaced with […] of buffer. The control samplecontained […] of dimethylsulfoxide (DMSO) in place of test sample.

Sequence of Sucrase-isomaltase, intestinal (P23739 1-1013 limits assumed): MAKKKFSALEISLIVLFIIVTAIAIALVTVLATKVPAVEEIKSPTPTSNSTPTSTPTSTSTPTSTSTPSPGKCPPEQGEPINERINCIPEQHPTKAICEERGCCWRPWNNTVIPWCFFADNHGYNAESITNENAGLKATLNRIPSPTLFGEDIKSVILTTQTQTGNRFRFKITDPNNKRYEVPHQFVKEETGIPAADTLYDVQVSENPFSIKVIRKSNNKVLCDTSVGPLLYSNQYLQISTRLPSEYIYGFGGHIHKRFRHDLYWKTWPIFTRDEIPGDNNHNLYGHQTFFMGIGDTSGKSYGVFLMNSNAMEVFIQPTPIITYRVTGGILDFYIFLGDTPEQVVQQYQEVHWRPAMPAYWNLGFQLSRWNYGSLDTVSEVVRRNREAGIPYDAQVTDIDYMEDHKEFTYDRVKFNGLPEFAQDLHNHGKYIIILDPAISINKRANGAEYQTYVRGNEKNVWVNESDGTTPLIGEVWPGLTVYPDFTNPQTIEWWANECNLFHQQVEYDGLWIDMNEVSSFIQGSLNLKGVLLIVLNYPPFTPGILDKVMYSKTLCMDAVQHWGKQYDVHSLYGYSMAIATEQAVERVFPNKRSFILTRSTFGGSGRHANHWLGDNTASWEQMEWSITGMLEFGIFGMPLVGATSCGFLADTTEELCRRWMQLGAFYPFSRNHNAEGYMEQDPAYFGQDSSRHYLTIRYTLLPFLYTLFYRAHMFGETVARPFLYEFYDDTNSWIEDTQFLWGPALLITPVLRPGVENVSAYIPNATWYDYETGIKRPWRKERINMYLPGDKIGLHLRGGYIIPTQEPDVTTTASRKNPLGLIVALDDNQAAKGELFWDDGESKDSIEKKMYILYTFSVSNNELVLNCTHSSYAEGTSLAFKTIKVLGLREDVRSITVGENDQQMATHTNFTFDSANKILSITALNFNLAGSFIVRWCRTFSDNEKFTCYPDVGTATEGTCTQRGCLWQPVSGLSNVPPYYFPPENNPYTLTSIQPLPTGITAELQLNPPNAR
Sequence of Sucrase-isomaltase, intestinal (P23739 1014-1841 limits assumed): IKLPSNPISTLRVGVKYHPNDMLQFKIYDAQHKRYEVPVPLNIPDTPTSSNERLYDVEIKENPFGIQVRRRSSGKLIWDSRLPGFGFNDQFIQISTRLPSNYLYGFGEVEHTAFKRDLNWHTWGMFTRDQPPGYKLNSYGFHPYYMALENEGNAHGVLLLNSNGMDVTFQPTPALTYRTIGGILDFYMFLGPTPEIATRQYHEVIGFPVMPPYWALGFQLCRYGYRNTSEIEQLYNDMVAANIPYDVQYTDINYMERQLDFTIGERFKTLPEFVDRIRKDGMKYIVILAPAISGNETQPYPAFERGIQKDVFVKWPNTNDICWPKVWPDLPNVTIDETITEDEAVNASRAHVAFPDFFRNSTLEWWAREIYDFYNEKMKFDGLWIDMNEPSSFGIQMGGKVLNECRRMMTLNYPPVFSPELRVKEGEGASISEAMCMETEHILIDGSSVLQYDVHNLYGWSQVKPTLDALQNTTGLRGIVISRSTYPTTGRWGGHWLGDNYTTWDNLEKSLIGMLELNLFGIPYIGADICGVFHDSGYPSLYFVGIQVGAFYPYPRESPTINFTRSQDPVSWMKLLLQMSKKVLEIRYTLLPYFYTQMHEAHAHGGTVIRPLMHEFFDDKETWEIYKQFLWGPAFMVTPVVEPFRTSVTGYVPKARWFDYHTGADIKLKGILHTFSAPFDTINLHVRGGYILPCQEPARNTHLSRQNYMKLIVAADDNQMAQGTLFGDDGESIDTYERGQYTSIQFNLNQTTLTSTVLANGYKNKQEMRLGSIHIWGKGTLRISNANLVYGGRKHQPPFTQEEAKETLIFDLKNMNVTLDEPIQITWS

IC50: 99.4 µM
SMILES: O=[N+]([O-])c1ccc2[nH]c(-c3ccncc3)nc2c1 [6-Nitro-2-(4-pyridyl)-1H-benzo[d]imidazole (3e)]
